Measured values reported in PMC6277555, “Short Symmetric-End Antimicrobial Peptides Centered on β-Turn Amino Acids Unit Improve Selectivity and Stability” (Frontiers in Microbiology, 2018).
≈ marks a conversion by molar mass, not a printed value. Residues, ends and D or L forms follow the SMILES beside them.

Key:
B. pyocyaneum ATCC 27853 = assay type: cell-based, Bacterium pyocyaneum
Method: (§1) The minimal inhibitory concentration (MIC) was determined according to a previously described method ([Chou et al., 2016]). Bacteria were cultured overnight to mid-log phase in MHB at 37°C and then diluted to give final concentrations ranging from 2 × 10^5 to 7 × 10^5 CFU/mL. Then, 50 μL of serial twofold dilutions of the peptides were added to each well in 96-well microtiter plates with a mixed solution containing 0.01% acetic acid and 0.2% bovine serum albumin (BSA, Sigma) was used to dissolve and dilute the peptides. Then, equal amounts of bacterial aliquots were incubated with the above peptide solution for 18–24 h at 37°C. The experiment was performed in triplicate using three replicates for each peptide and each bacterium. The broth was employed as a negative control and the broth with microbial cells was used as a positive control. The lowest concentration of peptide that prevented visible turbidity was defined as the MIC.

E. coli = test: Time killing assay; assay type: cell-based, Escherichia coli; conditions: mean of three independent assays
Method: The ability of peptides to kill bacterial cells was further investigated by analyzing the fraction of cell survival upon peptide treatment at various exposure times according to a previously described method ([Wiradharma et al., 2012]). Briefly, E. coli and S. aureus were treated at MIC and 2 × MIC concentrations with peptides. At various time periods (0, 5, 10, 30, 60, 90, 120, and 150 min), microbial suspensions were diluted at three different dilutions and plated on MHA plates. Microbial colonies were formed and counted after 24 h of incubation. The results were presented as the mean data from three independent assays.

[1] = test system: total genomic DNA from E. coli; test: DNA binding assay (gel retardation); design: species or system Escherichia coli; conditions: 1 h
Method: Gel retardation experiments were performed as previously described ([Zhu et al., 2015]). The total genomic DNA from E. coli was extracted using the rapid bacterial genomic DNA isolation kit (Sangon Biotech, China). First, increasing concentrations of peptides were mixed with 400 ng of genomic DNA in 20 μL of binding buffer [5% glycerol, 10 mM Tris-HCl (pH 8.0), 1 mM EDTA, 1 mM dithiothreitol, 20 mM KCl, and 50 μg/mL bovine serum albumin] and incubated at 37°C for 1 h. Next, 4 μL of native loading buffer [10% Ficoll 400, 10 mM Tris-HCl (pH 7.5), 50 mM EDTA, 0.25% bromophenol blue, and 0.25% xylene cyanol] was mixed with the samples and a 12 μL aliquot was subjected to 1% agarose gel electrophoresis in 0.5× Tris borate-EDTA buffer (45 mM Tris-borate and 1 mM EDTA, pH 8.0). Finally, gel retardation was visualized using UVP bioimaging systems.

S. typhimurium ATCC 7731 = assay type: cell-based, Salmonella entericaserovar Typhimurium
Method: as §1

hRBCs = test: Hemolytic activity; assay type: cell-based, human; conditions: peptide concentration resulting in 5% hemolysis of hRBCs; PBS, 1 h, 37°C
Method: (§2) The hemolytic activity of the peptides was detected using a previously described modified method ([Wang et al., 2015]). One milliliter of fresh hRBCs was obtained from a healthy donor (Zhihua Wang, Harbin, China) in a polycarbonate tube containing heparin. The collected hRBCs were centrifuged at 1000 × g for 5 min at 4°C and resuspended in PBS buffer (pH 7.2). The hRBCs were washed three times and then incubated with an equal volume of the respective peptide dissolved in PBS for 1 h at 37°C. Then, the hRBC suspension was placed into a 96-well microtiter plater with 50 μL of tested peptide solution at different concentrations and the mixture was incubated for 1 h at 37°C. […] The minimum hemolytic concentrations (MHCs) were defined as the peptide concentrations resulting in 5% hemolysis.

S. pullorum C79-13 = assay type: cell-based, Salmonella pullorum
Method: as §1

[2] = test system: Gram-negative and Gram-positive bacterial strains; test: Geometric mean of MICs and therapeutic index; assay type: cell-based
Method: as §2, §1

[3] = Calcein dye leakage from negatively charged LUVs; conditions: POPG/CL (3:1) LUVs, 100 μM lipid, 15 min, all tested concentrations (2 to 64 μM); relative to 0.1% Triton X-100
Method: Prepared calcein-entrapped large unilamellar vesicles (LUVs) were optimized using a previous method ([Stromstedt et al., 2009]). The negatively charged lipids composed of POPG/CL (3:1) were dissolved in chloroform, dried with a stream of nitrogen and resuspended in dye buffer solution (70 mM calcein, 10 mM Tris, 150 mM NaCl, and 0.1 mM EDTA, pH 7.4). The suspension was subjected to 10 freeze-thaw cycles in liquid nitrogen and extruded 21 times through polycarbonate filters (two stacked 100-nm pore size filters) with a LiposoFast extruder (Avestin, Inc., Canada). Untrapped calcein was removed by gel filtration on a Sephadex G-50 column. The lipid concentration was determined by quantitative phosphorus analysis. […] The leakage of calcein from LUVs was monitored by measuring the fluorescence intensity at an excitation wavelength of 490 nm and an emission wavelength of 520 nm on an F-4500 Fluorescence Spectrophotometer (Hitachi, Japan). […] The percentage of the calcein release caused by the AMPs was calculated using the following equation: (3) Dye release (%)=(Fobs−F0)/(F100−F0)×100% where F0 is the fluorescence intensity of the liposomes (background) and Fobs and F100 are the fluorescence intensities achieved by the peptides and Triton X-100, respectively.

CC[C@H](C)[C@H](N)C(=O)N[C@@H](Cc1c[nH]cn1)C(=O)N[C@@H](CCCCN)C(=O)N[C@@H](Cc1ccccc1)C(=O)N[C@@H](Cc1c[nH]c2ccccc12)C(=O)N[C@@H](CCCNC(=N)N)C(=O)N[C@@H](CS)C(=O)N[C@@H](CCCNC(=N)N)C(=O)N[C@@H](CCCNC(=N)N)C(=O)N[C@@H](CCCNC(=N)N)C(=O)N[C@@H](Cc1ccccc1)C(=O)N[C@@H](CS)C(=O)N[C@@H](CCCNC(=N)N)C(=O)N[C@@H](Cc1c[nH]c2ccccc12)C(=O)N[C@@H](Cc1ccccc1)C(=O)N[C@@H](CCCCN)C(=O)N[C@@H](Cc1c[nH]cn1)C(=O)N[C@H](C(N)=O)[C@@H](C)CC [PQ] (H-IHKFWRCRRRFCRWFKHI-NH2; N-terminus assumed)
MIC (B. pyocyaneum ATCC 27853): 8 µM (≈ 20.6 µg/mL) | Time to kill E. coli (E. coli; peptide at 1 × MIC): 30 min | Time to kill E. coli (E. coli; peptide at 2 × MIC): 30 min | Concentration showing DNA-binding ability [1]: > 128 µM | MIC (S. typhimurium ATCC 7731): 8 µM (≈ 20.6 µg/mL) | MHC (minimum hemolytic concentration) (hRBCs): >128 µM | MIC (S. pullorum C79-13): 8 µM (≈ 20.6 µg/mL) | GM (geometric mean of the MIC values) ([2]; all ten tested strains): 9.8 µM | Therapeutic index ([2]; from MHC and GM): 26.1 | Dye leakage (calcein release) [3]: more than 40%
